pIC50: −log10 of the molar value.
Biological target: Phospholipase A2 (Homo sapiens, UniProt P04054)
Experiment: Inhibition of PLA2 in fMLP and A23187 ionophore-stimulated human HL60 cells assessed as effect on [3H]arachidonic acid release
Type: cell-based
Conditions: hl-60

Phospholipase A2, sequence (P04054 whole entry): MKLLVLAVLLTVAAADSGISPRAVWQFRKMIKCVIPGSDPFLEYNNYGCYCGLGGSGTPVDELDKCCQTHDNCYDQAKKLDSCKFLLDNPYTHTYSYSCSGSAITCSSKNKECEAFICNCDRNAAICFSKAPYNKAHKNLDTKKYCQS

Row | pIC50 | Structure (SMILES)
1 | 5.00 | CC(C)=CCc1cc(C2CC(=O)c3c(cc(O)c(CC=C(C)C)c3O)O2)cc(CC=C(C)C)c1O (stereo not drawn)
2 | 5.22 | CC(C)=CCc1cc([C@@H]2CC(=O)c3c(O)cc(O)cc3O2)cc(CC=C(C)C)c1O [ABYSSINONE V]
3 | 5.52 | CC(C)=CCc1cc2c(cc1O)OCc1c-2oc2c(CC=C(C)C)c(O)ccc12 [ERYCRYSTAGALLIN]
